Results reported in patent US20060074243A1, “Hydroxamic acid and amide compounds and their use as protease inhibitors” (Pharmacia Corporation, priority 2002, published 2006).

Columns and labels:
Test in all cases: In vitro MMP inhibition analysis (fluorogenic peptide substrate cleavage), Ki
Assay type in all cases: biochemical
Conditions in all cases: Table 2
Human recombinant MMP-1 = molecular target: T1, Human recombinant MMP-1 (Homo sapiens, UniProt P03956)
T1 construct: made in house; host or cells: MMP-1-transfected HT-1080 cells (spent media)
T1 sequence (P03956 100-469): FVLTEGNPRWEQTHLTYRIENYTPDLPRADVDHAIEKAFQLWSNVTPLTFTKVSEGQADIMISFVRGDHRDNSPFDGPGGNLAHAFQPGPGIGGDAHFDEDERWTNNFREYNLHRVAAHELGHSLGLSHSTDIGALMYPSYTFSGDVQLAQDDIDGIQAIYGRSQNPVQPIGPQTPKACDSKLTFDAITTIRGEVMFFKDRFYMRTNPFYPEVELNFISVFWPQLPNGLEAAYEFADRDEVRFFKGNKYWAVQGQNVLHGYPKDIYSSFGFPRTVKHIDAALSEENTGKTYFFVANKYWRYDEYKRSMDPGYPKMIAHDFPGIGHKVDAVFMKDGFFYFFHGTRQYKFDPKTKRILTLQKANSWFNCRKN
In short: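 APMA- or trypsin-activated recombinant human MMP-1 (purified from transfected HT-1080 medium) with 4 μM MCA/Dpa quenched fluorogenic peptide, 1 h at room temperature in Tris/NaCl/CaCl2 buffer pH 7.5; fluorescence ex 330/em 420 nm. Ki from Morrison-equation fit of rates, substrate at or below Km, uncorrected.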

Human recombinant MMP-14 = molecular target: T2, Human recombinant MMP-14 (Homo sapiens, UniProt P50281)
T2 construct: The catalytic domain enzyme was expressed in E. coli inclusion bodies, solubilized in urea; made in house
In short: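 Refolded catalytic domain of MMP-14 expressed in E. coli, activated with APMA or trypsin, incubated 1 h at room temperature with 4 μM MCA-peptide substrate in Tris buffer pH 7.5 with CaCl2. Cleavage rate followed by fluorescence (ex 330/em 420 nm). Ki from Morrison-equation fit; substrate at or below Km, so no substrate correction.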

Human recombinant MMP-9 = molecular target: T3, Human recombinant MMP-9 (Homo sapiens, UniProt P14780)
T3 construct: made in house; host or cells: MMP-9-transfected HT1080 cells (spent media)
In short: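 Recombinant MMP-9 purified from transfected HT1080 cell media, activated with APMA, trypsin or recombinant MMP-3, assayed in Tris buffer pH 7.5 with CaCl2 and 4 μM fluorogenic MCA/Dpa peptide, 1 h at room temperature (ex 330/em 420 nm). Ki from Morrison-equation regression of velocity; substrate at or below Km, uncorrected.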

T3 sequence (P14780 107-707 limits assumed): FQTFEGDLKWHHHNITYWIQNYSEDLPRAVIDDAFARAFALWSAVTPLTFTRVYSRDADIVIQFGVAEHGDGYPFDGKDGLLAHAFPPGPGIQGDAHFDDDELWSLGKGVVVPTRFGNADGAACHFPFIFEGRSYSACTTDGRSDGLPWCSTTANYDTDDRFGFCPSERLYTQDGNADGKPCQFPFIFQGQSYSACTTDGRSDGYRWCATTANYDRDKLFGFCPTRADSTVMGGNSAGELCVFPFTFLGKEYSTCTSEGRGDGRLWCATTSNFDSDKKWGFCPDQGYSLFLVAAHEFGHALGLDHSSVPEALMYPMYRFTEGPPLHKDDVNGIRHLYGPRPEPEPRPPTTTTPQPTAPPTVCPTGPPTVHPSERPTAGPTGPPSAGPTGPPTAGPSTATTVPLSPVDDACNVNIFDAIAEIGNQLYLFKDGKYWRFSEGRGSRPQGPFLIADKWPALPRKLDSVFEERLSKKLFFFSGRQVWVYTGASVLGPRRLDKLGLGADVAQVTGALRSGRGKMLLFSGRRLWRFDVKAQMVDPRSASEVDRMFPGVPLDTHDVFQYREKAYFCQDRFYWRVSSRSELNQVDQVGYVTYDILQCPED

| SMILES | Ki (Human recombinant MMP-1) [nM] | Ki (Human recombinant MMP-14) [nM] | Ki (Human recombinant MMP-9) [nM] |
| --- | --- | --- | --- |
| O=C(NO)C1(S(=O)(=O)c2ccc(-c3cnc4ccccc4n3)cc2)CCOCC1 [Example 194] | > 10000 | > 10000 | 1260 |
| O=C(NO)C1(S(=O)(=O)c2ccc(-c3ccc(CCC(F)(F)C(F)(F)F)cn3)cc2)CCOCC1 [Example 201] | 980 | 221 | 0.097 |
| CCc1ccc(-c2ccc(S(=O)(=O)C3(C(=O)NO)CCOCC3)cc2)cc1 [Example 79] | 471 | 27.4 | 0.635 |
| O=C(NO)C1(S(=O)(=O)c2ccc(-c3ccc(OCC(F)(F)C(F)(F)F)cc3)cc2)CCOCC1 [Example 95] | 1020 | 463 | 0.752 |
| CC(C)CCc1cnc(-c2ccc(S(=O)(=O)C3(C(=O)NO)CCOCC3)cc2)cn1 [Example 169] | > 10000 | 2520 | 0.59 |
| CC[C@H](C)NC(=O)c1ccc(-c2ccc(S(=O)(=O)C3(C(=O)NO)CCOCC3)cc2)nc1 [Example 208] | 1260 | > 10000 | 39.4 |
| COc1ccc(C(=O)c2cnc(-c3ccc(S(=O)(=O)C4(C(=O)NO)CCOCC4)cc3)cn2)cc1 [Example 179] | > 10000 | 218 | 38.6 |
| O=C(NO)C1(S(=O)(=O)c2ccc(-c3cnc(-n4cccc4)cn3)cc2)CCOCC1 [Example 94] | > 10000 | 2940 | 3.4 |
| O=C(NCC1CC1)c1ccc2cc(-c3ccc(S(=O)(=O)C4(C(=O)NO)CCOCC4)cc3)ccc2c1 [Example 220] | 251 | > 2500 | 50.5 |
| CCCCc1ccc(-c2ccc(S(=O)(=O)C3(C(=O)NO)CCOCC3)cc2)cc1 [Example 91] | 3900 | 321 | 0.266 |
| O=C(CCc1nccs1)c1ccc(-c2ccc(S(=O)(=O)C3(C(=O)NO)CCOCC3)cc2)cc1 [Example 211] | 975 | 773 | 9.78 |
| O=C(NO)C1(S(=O)(=O)c2ccc(-c3ccc(CCCC(F)(F)F)cn3)cc2)CC=CC1 [Example 202] | 4060 | 1260 | 0.578 |
| COC(=O)c1ccc2cc(-c3ccc(S(=O)(=O)C4(C(=O)NO)CCOCC4)cc3)ccc2c1 [Example 181] | 465 | 623 | 0.264 |
| CC(C)CCNC(=O)c1cnc(-c2ccc(S(=O)(=O)C3(C(=O)NO)CCOCC3)cc2)cn1 [Example 185] | 501 | 2050 | 13.5 |
| CC(C)c1ccc(-c2ccc(S(=O)(=O)C3(C(=O)NO)CCOCC3)cc2)cc1 [Example 97] | 1040 | 109 | 5.4 |
| CC(C)COc1cnc(-c2ccc(S(=O)(=O)C3(C(=O)NO)CCOCC3)cc2)cn1 [Example 170] | 693 | 234 | 0.08 |
| O=C(NO)C1(S(=O)(=O)c2ccc(-c3nc4ccccc4s3)cc2)CCOCC1 [Example 195] | > 10000 | 1790 | 32.2 |

| SMILES | Ki (Human recombinant MMP-1) [nM] | Ki (Human recombinant MMP-14) [nM] | Ki (Human recombinant MMP-9) [nM] |
| --- | --- | --- | --- |
| CCC(C)COc1ccc(-c2ccc(S(=O)(=O)C3(C(=O)NO)CCOCC3)cc2)cc1C(F)(F)F (stereo not drawn) [Example 92] | > 10000 | 7410 | 106 |
| CCNc1cnc(-c2ccc(S(=O)(=O)C3(C(=O)NO)CCOCC3)cc2)cn1 [Example 93] | > 10000 | 4450 | 4.86 |
| CCCCc1ccc(-c2ccc(S(=O)(=O)C3(C(=O)NO)CCOCC3)cc2)nc1 [Example 89] | 2260 | 139 | 0.0528 |
| O=C(NO)C1(S(=O)(=O)c2ccc(-c3ccc(C(F)(F)F)cc3F)cc2)CCOCC1 [Example 96] | 602 | 224 | 2.14 |
| O=C1c2ccccc2C(=O)N1CCCOc1cccc(-c2ccc(S(=O)(=O)C3(C(=O)NO)CCOCC3)cc2)c1 [Example 196] | > 10000 | > 10000 | 430 |
| O=C(c1ccc2cc(-c3ccc(S(=O)(=O)C4(C(=O)NO)CCOCC4)cc3)ccc2c1)N1CCCCC1 [Example 223] | 1500 | > 10000 | 34.3 |
| O=C(NO)C1(S(=O)(=O)c2ccc(-c3ccc(OCC(F)(F)C(F)F)c(C(F)(F)F)c3)cc2)CCOCC1 [Example 85] | > 10000 | 2800 | 248 |
| O=C(N1CCCCC1)N1CCC(C(=O)NO)(S(=O)(=O)c2ccc(-c3ccc(CCC(F)(F)C(F)(F)F)cc3)cc2)CC1 [Example 175] | > 10000 | > 10000 | 1.35 |
| O=C(NO)C1(S(=O)(=O)c2ccc(-c3cnc(OCCC4CC4)cn3)cc2)CCOCC1 [Example 172] | 1360 | 222 | 0.06 |
| O=C(NO)C1(S(=O)(=O)c2ccc(-c3cnc(CCC(F)(F)F)cn3)cc2)CCN(C2CC2)CC1 [Example 215] | > 10000 | 5070 | 1 |
| O=C(NO)C1(S(=O)(=O)c2ccc(-c3ccc(F)c(C(F)(F)F)c3)cc2)CCOCC1 [Example 84] | > 10000 | 989 | 97.1 |
| O=C(NO)C1(S(=O)(=O)c2ccc(-c3cnc(OCCCC(F)(F)F)cn3)cc2)CCOCC1 [Example 88] | 3520 | 539 | 2.31 |
| COc1ccc(Cc2cnc(-c3ccc(S(=O)(=O)C4(C(=O)NO)CCOCC4)cc3)cn2)cc1 [Example 182] | > 10000 | > 10000 | 246 |
| CCCCNC(=O)c1ccc(-c2ccc(S(=O)(=O)C3(C(=O)NO)CCOCC3)cc2)nc1 [Example 203] | 1140 | 7920 | 61.4 |
| CC(C)CC#Cc1cnc(-c2ccc(S(=O)(=O)C3(C(=O)NO)CCOCC3)cc2)cn1 [Example 166] | 1660 | 264 | 0.1 |
| O=C(NO)C1(S(=O)(=O)c2ccc(-c3ccc(OCC(F)(F)C(F)(F)F)c(C(F)(F)F)c3)cc2)CCOCC1 [Example 90] | > 10000 | 2100 | 216 |
| Cc1ccc(-c2ccc(S(=O)(=O)C3(C(=O)NO)CCOCC3)cc2)nc1 [Example 81] | 354 | 22.6 | 0.993 |
